Experimental data published in US20170157001A1, “Compositions Comprising Strontium and Uses Thereof in the Treatment or Prevention of Gingivitis, Periodontitis, Periodontitis as a Manifestation of Systemic Diseases, and Necrotizing Periodontal Diseases” (priority 2006, published 2017).

What was measured:
[1] = relative to cholecalciferol itself; cited from earlier work
[2] = Determination of solubility velocity by ICP-MS in 0.1 M hydrochloride solution; conditions: in hydrochloride 0.1 M, 37° C., 84Sr signal
Method: Determination of solubility velocity by Inductively Coupled Plasma-Mass Spectrometry (ICP-MS)
The solubility is measures as strontium signals over time using ICP-MS. Using this technique it is possible to follow multiple isotopes of the element, here, ^84Sr, ^86Sr, ^87Sr and ^88Sr.
A hydrochloride solution (0.1 M) was added to the sample and the sample then immediately enters, by means of a peristaltic pump, the atomizer of the ICP-MS apparatus. The pump speed was 4.4 ml/min. […] The temperature of the HCl solution was 37° C.
The solubility velocity of the compound is obtained by analysing the slopes of the front curves. The first curve represents the experiment and the second curve the apparatus, thus the difference between the slopes of the two curves are used to calculate the solubility velocity by division with the top value.

| Structure (SMILES) | times more effective in terms of bioavailability than cholecalciferol [1] | solubility velocity [2] |
| --- | --- | --- |
| C=C1/C(=C\C=C2/CCC[C@]3(C)[C@@H]([C@H](C)CCCC(C)(C)O)CC[C@@H]23)C[C@@H](O)C[C@@H]1O [1,25 dihydroxycholecalciferol] | ten | – |
| C=C1CC[C@H](O)C/C1=C/C=C1\CCC[C@]2(C)[C@@H]([C@H](C)CCCC(C)(C)O)CC[C@@H]12 [25-hydroxycholecalciferol] | five | – |
| [Cl-].[Cl-].[Sr+2] [strontium chloride] | – | very high |
